# Measurements as given in paper PMC11111408, “Concurrent inhibition of oncogenic and wild-type RAS-GTP for cancer therapy” (Nature, 2024).
# Several values for one entry are separate records, joined by “and”; a condition that tells them apart may be missing. Equal entries are not always repeated.
# Legend:
# KRAS WT [1] = target: T1, KRAS WT (Homo sapiens, UniProt P01116+P62937); test: Cellular RAS–RAF (CRAF RBD) disruption, nano-BRET in U2OS cells; type: cell-based; set-up: expressed in transfected cells; host or cells: U2OS; details: (95% CI)
# Excerpt: (§1) KRAS4B, or other small GTPases, containing the indicated mutations were cloned in pNLF-N or pHTN plasmids for expression with an N-terminal nanoluciferase or HaloTag fusion, respectively. […] The following day, the cells were collected by Trypsin and reseeded in a white tissue culture-treated 96-well plate in OptiMem phenol red-free medium (Gibco) containing 4% FBS and a 1:1,000 dilution of NanoBRET 618 HaloTag ligand (Promega). For endpoint concentration response curves, vivazine nanoluciferase substrate was added to 1× concentration in OptiMem phenol red-free medium with 4% FBS. Varying concentrations of inhibitor were added and incubated for 1 or 4 h before the nano-BRET signal was measured on a Perkin Elmer Envision plate reader. For kinetic assays, endurazine nanoluciferase substrate was used in place of vivazine, and the plate was placed in a Cytation5 multi-mode reader pre-equilibrated to 37 °C and 5% CO2.
# KRAS^G12R [2] = target: T2, KRAS^G12R (Homo sapiens, UniProt P01116+P62937, G12R); test: as above; type: cell-based; set-up: expressed in transfected cells; host or cells: U2OS; details: (95% CI)
# Excerpt: as §1
# KRAS^G12C [3] = target: T3, KRAS^G12C (Homo sapiens, UniProt P01116+P62937, G12C); test: as above; type: cell-based; set-up: expressed in transfected cells; host or cells: U2OS; details: (95% CI)
# Excerpt: as §1
# KRAS^G13C [4] = target: T4, KRAS^G13C (Homo sapiens, UniProt P01116+P62937, G13C); test: as above; type: cell-based; set-up: expressed in transfected cells; host or cells: U2OS; details: (95% CI)
# Excerpt: as §1
# KRAS^G12D [5] = target: T5, KRAS^G12D (Homo sapiens, UniProt P01116+P62937, G12D); test: as above; type: cell-based; set-up: expressed in transfected cells; host or cells: U2OS; details: (95% CI)
# Excerpt: as §1
# KRAS WT [6] = target: T1, KRAS WT; test: Cellular RAS–CYPA binding (tri-complex formation), nano-BRET in U2OS cells; type: cell-based; set-up: expressed in transfected cells; host or cells: U2OS; details: (95% CI)
# Excerpt: as §1
# KRAS^G12R [7] = target: T2, KRAS^G12R; test: as above; type: cell-based; set-up: expressed in transfected cells; host or cells: U2OS; details: (95% CI)
# Excerpt: as §1
# KRAS^G12C [8] = target: T3, KRAS^G12C; test: as above; type: cell-based; set-up: expressed in transfected cells; host or cells: U2OS; details: (95% CI)
# Excerpt: as §1
# KRAS^G13C [9] = target: T4, KRAS^G13C; test: as above; type: cell-based; set-up: expressed in transfected cells; host or cells: U2OS; details: (95% CI)
# Excerpt: as §1
# KRAS^G12D [10] = target: T5, KRAS^G12D; test: as above; type: cell-based; set-up: expressed in transfected cells; host or cells: U2OS; details: (95% CI)
# Excerpt: as §1
# [11] = system: antigen specific CD8+ T cells, C57BL/6J mice; test: OVA peptide vaccination, CD8+ T cell response; type: in vivo, mouse; details: individual mice; for IFNγ production by ELISpot: 25 mg/kg PO daily, 25 mg/kg
# Protocol: Mice were euthanized on day 15 after treatment start, and spleens were harvested and assessed for frequency of antigen specific (H-2Kb [sequence] tetramer positive) CD8 + T cells by flow cytometry (a) and for IFNγ production by ELISpot.
# Briefly, bone marrow was isolated from the femurs and tibias of 6-8 week-old female C57BL/6J mice (Jackson Laboratory). Bone marrow cells were plated in complete RPMI containing 10% FBS, 1 mM Sodium Pyruvate, mM HEPES, 1x MEM Non-Essential Amino Acids, and supplemented with GMCSF (Peprotech) at 20 ng/ml. On day 10, 0.5 ng/ml IL-4 (Peptotech) was added to the media. 50% of the media was replaced with fresh GMCSF-containing media on culture days 6, 8, and 10. […] 100% of the media was replaced on culture days 12 and 13. To activate BMDCs prior to vaccination, 0.5 μg/ml CpG (Invivogen, tlrl-1668) and 1 μg/ml LPS (Sigma Aldrich, L5418) were added to the media on day 13. On culture day 14, activated BMDCs were pulsed with OVA peptide ([sequence]) (1 μg/ml, Anaspec, AS-60193-1) for 2 hours and washed 3 times in serum-free RPMI. 1x10^6 peptide-pulsed, activated BMDCS were injected intravenously into each mouse on day 0 and day 8. […] After 15 days of treatment, mice were euthanized and spleens were harvested. Spleens were mechanically dissociated into single-cell suspension, incubated at 4°C for 20 minutes with Mouse Fc blocking agent (anti-CD16/32, Biolegend) and Live/Dead blue Viability Dye (ThermoFisher), and 20 minutes with cell staining antibody mix. […] Murine IFN𝛄 ELISpot (ImmunoSpot, CTL) was performed according to manufacturer’s protocol. Briefly, spleens were mechanically dissociated into single-cell suspension. […] Plates were incubated at 37°C, 5% CO2 for 24 hours before staining and analysis on the CTL ImmunoSpot S6 Universal M2 Analyzer.
# [12] = system: NCI-H358 cells (CYPA-high, CYPA-low); test: pERK (MSD) in NCI-H358 cells with low or high CYPA; details: NCI-H358, doxycycline-inducible CYPA
# Excerpt: NCI-H358 cells were transduced by lentivirus encoding Cas9, a guide RNA targeting PPIA (which encodes CYPA), and the puromycin resistance gene at WarpDrive Bio. Following puromycin selection, Flag–CYPA was introduced under the control of a tet-inducible promoter by lentivirus. Clones with high and low expression levels of Flag–CYPA were isolated at Revolution Medicines.
# KRAS^G12S = KRAS^G12S (Homo sapiens, UniProt P01116+P62937, G12S); test: Cellular RAS–CYPA binding (tri-complex formation), nano-BRET in U2OS cells; type: cell-based; set-up: expressed in transfected cells; host or cells: U2OS PPIA-KO; details: (95% CI)
# Excerpt: as §1
# KRAS^G12V = KRAS^G12V (Homo sapiens, UniProt P01116+P62937, G12V); test: as above; type: cell-based; set-up: expressed in transfected cells; host or cells: U2OS PPIA-KO; details: for Cellular milliBRET signal between CYPA and KRAS G12V: KRASG12V, single replicates
# Excerpt: as §1
# GMPPNP–KRAS = target: T6, GMPPNP–KRAS (Homo sapiens, UniProt P01116, G12C); test: SPR binding of RMC-7977 to KRAS in the absence of CYPA; details: compound alone without CYPA
# T6 construct: His6-TEV (N); made in house; host or cells: E. coli BL21(DE3)
# KRAS^G12C [13] = target: T3, KRAS^G12C; test: RAS binding affinity of compound-bound CYPA (Kd2), SPR; set-up: His6-TEV (N); made in house; host or cells: BL21(DE3) Escherichia coli; details: steady state SPR, (95% CI)
# [14] = system: Capan-1, SW620, AsPC-1, HPAC, NCI-H358, PSN1, HUPT3, HCT 116, Hs 766T, SK-MEL-30, KU1919, NCI-H1975, A375; test: pERK (AlphaLISA) in human cancer cell lines; type: cell-based
# Excerpt: Data points show biological duplicates normalized to vehicle control. […] Data points show biological duplicates normalized to vehicle control from 1 of 2–26 independent experiments. Source Data
smiles,measurement,setting,value
CCn1c(-c2cc(N3CCN(C4CC4)CC3)cnc2[C@H](C)OC)c2c3cc(ccc31)-c1csc(n1)C[C@H](NC(=O)[C@H]1[C@@H]3COC[C@@H]31)C(=O)N1CCC[C@H](N1)C(=O)OCC(C)(C)C2 [RMC-7977],EC50,KRAS WT [1],34.5 nM
same,EC50,KRAS^G12R [2],21.2 nM
same,EC50,KRAS^G12C [3],5.06 nM
same,EC50,KRAS^G13C [4],17.2 nM
same,EC50,KRAS^G12D [5],9.5 nM
same,EC50,KRAS WT [6],9.12 nM
same,EC50,KRAS^G12R [7],2.88 nM
same,EC50,KRAS^G12C [8],1.27 nM
same,EC50,KRAS^G13C [9],3.7 nM
same,EC50,KRAS^G12D [10],2.69 nM
same,% Antigen specific CD8 T cells,"[11]; spleen, day 15, 25 mg/kg PO daily, OVA peptide vaccinated C57BL/6J mice",1.46% and 1.22% and 0.72%
same,IFNγ production by ELISpot,[11]; splenocytes stimulated with SIINFEKL,1885 and 890 and 922
same,IFNγ production by ELISpot,"[11]; splenocytes, no stim",35 and 80 and 53
same,"sensitivity of CYPA-high versus CYPA-low cells, inhibition of signalling (pERK)",[12],threefold
same,EC50,KRAS^G12S,2.24 nM
same,Cellular milliBRET signal between CYPA and KRAS G12V,KRAS^G12V; RMC-7977 0.152 nM,1.173 milliBRET and 1.06 milliBRET and 0.9358 milliBRET and 1.334 milliBRET and 1.012 milliBRET and 1.508 milliBRET
same,Cellular milliBRET signal between CYPA and KRAS G12V,KRAS^G12V; RMC-7977 0.457 nM,1.649 milliBRET and 2.359 milliBRET and 1.781 milliBRET and 2.809 milliBRET and 1.779 milliBRET and 2.2094 milliBRET
same,Cellular milliBRET signal between CYPA and KRAS G12V,KRAS^G12V; RMC-7977 1.372 nM,4.1167 milliBRET and 4.336 milliBRET and 3.9 milliBRET and 4.218 milliBRET and 4.578 milliBRET and 4.094 milliBRET
same,Cellular milliBRET signal between CYPA and KRAS G12V,KRAS^G12V; RMC-7977 4.115 nM,7.461 milliBRET and 7.409 milliBRET and 7.89 milliBRET and 7.071 milliBRET and 7.622 milliBRET and 7.676 milliBRET
same,Cellular milliBRET signal between CYPA and KRAS G12V,KRAS^G12V; RMC-7977 12.346 nM,11.4839 milliBRET and 11.5824 milliBRET and 12.0176 milliBRET and 11.1912 milliBRET and 11.5065 milliBRET and 11.1163 milliBRET
same,Cellular milliBRET signal between CYPA and KRAS G12V,KRAS^G12V; RMC-7977 37.037 nM,13.6301 milliBRET and 14.0182 milliBRET and 13.661 milliBRET and 13.6725 milliBRET and 13.3211 milliBRET and 13.487 milliBRET
same,Cellular milliBRET signal between CYPA and KRAS G12V,KRAS^G12V; RMC-7977 111.111 nM,14.1557 milliBRET and 14.0898 milliBRET and 14.0287 milliBRET and 13.9679 milliBRET and 13.745 milliBRET and 13.7924 milliBRET
same,Cellular milliBRET signal between CYPA and KRAS G12V,KRAS^G12V; RMC-7977 333.333 nM,14.0834 milliBRET and 13.7044 milliBRET and 13.6567 milliBRET and 12.9685 milliBRET and 13.078 milliBRET and 12.7653 milliBRET
same,Cellular milliBRET signal between CYPA and KRAS G12V,KRAS^G12V; RMC-7977 1000.000 nM,14.1055 milliBRET and 12.901 milliBRET and 13.6313 milliBRET and 12.8159 milliBRET and 14.3526 milliBRET and 13.1398 milliBRET
same,EC50,"KRAS^G12V; KRAS^G12V, nano-BRET, (95% CI)",2.25 nM
same,binding to GMPPNP–KRAS,GMPPNP–KRAS,neither RMC-7977 nor CYPA alone exhibited any measurable binding
same,Kd,KRAS^G12C [13],40.1 nM
same,pERK of RAS mutant and RAS WT cell lines treated with RMC-7977,"[14]; CAPAN1, RMC-7977 1.52 nM",19.123 and 19.8052
same,pERK of RAS mutant and RAS WT cell lines treated with RMC-7977,"[14]; CAPAN1, RMC-7977 4.57 nM",1.955 and 2.566
same,pERK of RAS mutant and RAS WT cell lines treated with RMC-7977,"[14]; HUPT3, RMC-7977 0.05 nM",94.4091 and 94.8337 and 88.9674 and 91.9384 and 90.4786 and 91.137
same,pERK of RAS mutant and RAS WT cell lines treated with RMC-7977,"[14]; HUPT3, RMC-7977 0.46 nM",54.494 and 62.3496 and 67.5543 and 72.6449 and 54.2163 and 63.5857
same,pERK (normalised response),"[14]; NCIH358, RMC-7977 0.05 nM",95.3351 and 101.687
same,pERK (normalised response),"[14]; NCIH358, RMC-7977 0.46 nM",100.659 and 104.04
same,pERK (normalised response),"[14]; NCIH358, RMC-7977 4.12 nM",12.3735 and 16.2725
same,pERK (normalised response),"[14]; PSN1, RMC-7977 0.05 nM",88.9166 and 100.089
same,pERK (normalised response),"[14]; RMC-7977 123.46 nM, replicates",-0.725 and -0.593 and -0.5397 and -0.3753 and -0.4309 and -0.2687 and -0.4302 and -0.02426 and 0.06955 and 0.1569 and -0.4286 and -0.3396 and -0.5772 and -0.5479 and -0.6628 and -0.5005 and -0.5749 and -0.2908
same,pERK (normalised response),"[14]; RMC-7977 370.39 nM, replicates",-0.7644 and -0.7111 and -0.5907 and -0.5768 and -0.4216 and -0.3892 and -0.6033 and -0.5758 and -0.3364 and 0.5402 and -0.5111 and -0.3801 and -0.726 and -0.7102 and -0.7981 and -0.753 and -0.6335 and -0.6222
same,pERK (normalised response),"[14]; RMC-7977 1111.14 nM, replicates",-0.8316 and -0.7436 and -0.6671 and -0.6486 and -0.6046 and -0.6033 and -0.5758 and -0.3138 and -0.0744 and -0.5014 and -0.4707 and -0.7846 and -0.6967 and -0.78 and -0.7169 (2×) and -0.6921
same,pERK (normalised response),"[14]; RMC-7977 3333.41 nM, replicates",-0.871 and -0.8455 and -0.7297 and -0.8432 and -0.7667 and -0.6405 and -0.6259 and -0.2555 and 0.2652 and -0.5936 and -0.3995 and -0.7395 and -0.6651 and -0.762 and -0.5906 and -0.7169 and -0.656
same,pERK (normalised response),"[14]; RMC-7977 10000.00 nM, replicates",-0.9243 and 0.3336 and -0.8571 and 0.183 and -0.9196 and -0.05096 and -0.6324 and -0.02426 and -0.4949 and 0.5774 and -0.5725 and 0.8637 and -0.8004 and 0.4058 and -0.7439 and 0.02254 and -0.7755 and 0.9604
